Test results taken from patent publication US20070275935A1, “Estratriene Derivatives” (priority 2003, published 2007).

Experiments:
[1] = test system: Human airway smooth muscle (HASM) cells; assay: Thrombin-induced proliferation of human airway smooth muscle (HASM) cells, cell number after 48 h; format: cell-based; conditions: for IC50: Homo sapiens, negative log of the concentration that reduces the thrombin-induced proliferative response by 50%, pIC50 of 4.00 = inactive, read-out: HASM-Thr pIC50 (converted); for HASM- Thr pIC25 / HASM- Thr pIC75: two site model, thrombin-induced proliferation; for HASM- Thr pIC25: first phase (inhibition up to 50%); for HASM- Thr pIC75: second phase (inhibition up to 100%)
Procedure: Human airway smooth muscle (HASM) cells were cultured from macroscopically normal bronchi (0.5-2 cm diameter) obtained from lung resection or heart-lung transplant specimens provided by the Alfred Hospital (Melbourne) according to methods published in detail previously (Fernandes et al., 1999).
Approximately 0.1 g of smooth muscle was stripped from the wall of the bronchus for each cell culture. Dissected tissue was immersed in Dulbecco's modified Eagle's medium (DMEM) (Flow Laboratories, Scotland), supplemented with 100 U/mL penicillin G (CSL, Australia) and 100 ug/mL streptomycin (CSL, Australia). The tissue was rinsed in phosphate buffered saline (PBS; Oxoid, England) and the airway smooth muscle was chopped into 2 mm^3 pieces and digested for 2 hours in DMEM containing elastase (0.5 mg/mL: Worthington Biochemical, USA) followed by a 12 hour incubation in DMEM containing collagenase (1 mg/mL) (Worthington Biochemical, USA), at 37° C. with agitation.
The resulting cell suspension was centrifuged and washed three times in phosphate buffered saline (PBS). Following the last centrifugation step, the cells were resuspended in 25 mL of DMEM supplemented with L-glutamine (2 mM: Sigma, USA), penicillin G (100 U/mL), streptomycin (100 μg/mL), amphotericin B (2 μg/mL: Wellcome, UK) and heat-inactivated FCS (10% v/v: CSL, Australia) and seeded into 25 cm^2 culture flasks. The primary isolates were incubated for 7 to 14 days to reach confluence.
Cells were harvested weekly by 10 min exposure to trypsin (0.5%: CSL, Australia) and EDTA (1 mM in PBS: BDH, Australia) and passaged at a 1:3 ratio into 75 cm^2 flasks.
The activity of the compounds has been established in cell culture by exploring their effects on mitogen-induced increases in cell number. We investigated the effects of 2MEO and its analogues, 4NO and 4NOM, on the proliferation of HASM cells in response to the proliferative stimulus of either thrombin of basic fibroblast growth factor (bFGF). Cells were seeded onto 6-well plates at a density of 1.5×10^4 cells cm^2, made quiescent by removal of serum-containing media for 24 hours and then stimulated for 48 h with either thrombin (0.3 U/ml) or bFGF (300 pM). The test compounds were pre-incubated with HASM cells for 30 minutes before the addition of thrombin. At the end of the 48 hour incubation period, cells were detached from the culture plate by trypsin (0.5% w/v in PBS containing 1 mM EDTA), incubated for 5 minutes at ambient temperature in PBS containing 0.5% (w/v) trypan blue, washed twice (2% FCS in PBS), isolated by centrifugation (12,000×g, 5 min) and resuspended in 200 μl 2% FCS in PBS for counting in a haemocytometer chamber.
Data are expressed as a percentage of the cell number in vehicle treated wells and are presented as the mean and standard error of the mean.
The potency of the compounds in regulating thrombin-induced proliferation of human airway smooth muscle (HASM) was assessed in cells maintained in culture as described above. The potencies are presented as pIC50 values (Column A of Table 4) denoting the negative log of the concentration that reduces the proliferative response by 50%. […] When the single phase model was determined to be more appropriate, the values of pIC25 and pIC75 were not calculated or shown in the table.

[2] = target: T1, Estrogen Receptor (ER) (Rattus norvegicus, UniProt P06211); assay: Estrogen receptor binding assay, 3H-estradiol displacement from rat uterine cytosol; conditions: 3H-estradiol displacement, cytosolic preparations of rat uterus; pIC50 of 4.00 = inactive; read-out: ER-RLB pIC50 (converted)
T1 construct: using rat uterine cytosol as a source of ER; from tissue; host or cells: rat uterus, cytosol fraction (30000 x g supernatant)
T1 sequence (P06211 1-600): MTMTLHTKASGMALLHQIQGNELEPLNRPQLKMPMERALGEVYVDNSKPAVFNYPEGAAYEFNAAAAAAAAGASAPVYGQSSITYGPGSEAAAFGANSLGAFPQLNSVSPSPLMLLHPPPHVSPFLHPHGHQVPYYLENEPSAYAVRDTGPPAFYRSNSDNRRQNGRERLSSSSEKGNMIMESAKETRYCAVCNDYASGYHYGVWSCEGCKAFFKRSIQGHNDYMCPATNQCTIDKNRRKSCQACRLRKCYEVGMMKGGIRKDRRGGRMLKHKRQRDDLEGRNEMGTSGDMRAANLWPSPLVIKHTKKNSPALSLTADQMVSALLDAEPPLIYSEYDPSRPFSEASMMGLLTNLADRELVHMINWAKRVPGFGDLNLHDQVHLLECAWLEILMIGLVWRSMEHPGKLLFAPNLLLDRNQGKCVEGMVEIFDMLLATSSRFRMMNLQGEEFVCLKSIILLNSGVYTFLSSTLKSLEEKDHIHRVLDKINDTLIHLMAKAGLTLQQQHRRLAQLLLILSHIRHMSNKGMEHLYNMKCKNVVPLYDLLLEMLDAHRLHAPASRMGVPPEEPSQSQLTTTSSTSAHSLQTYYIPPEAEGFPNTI
Procedure: Uteri (6-10 per batch) were isolated from Brown Norway rats (250-350g), washed free from blood in saline and homogenised in 10 mM Tris buffer (pH 7.4, 1.5 mM EDTA, 10% w/v glycerol, 1 mM phenylmethylsulfonylfluoride) using an Ultra Turrax homogeniser for 3 by 15 s bursts with intervals of 1 min on ice.
Nuclear material and cellular debris were removed by centrifugation at 750×g at 4° C. for 10 min (Sorvall RT7); the cytosol component was prepared by centrifugation at 30000×g for 120 min at 4° C. in a Beckman JM1 centrifuge. The cytosol was diluted to approximately 1 mg/ml protein (rat uterine extract) determined using the Bradford method (Biorad).
Separation of bound from free radioligand was achieved by the addition of 500 μL of dextran-coated charcoal (400 mg dextran clinical grade C and 2g of charcoal, Norit A in 100 mL of Tris buffer) and centrifugation at 4° C. in a Sorval RT7 at 2000×g for 10 min.

[3] = test system: type II airway epithelial cell line, A549; assay: Proliferation of A549 cells in response to 5% FCS; format: cell-based, human; conditions: Homo sapiens, A549; proliferation in response to 5% FCS; pIC50 of 4.00 = inactive; read-out: A549 PIC50 (converted)
Procedure: The effects of 4NO were evaluated in a number of non-smooth muscle cell types including the type II airway epithelial cell line, A549 (ATCC accession number ATCC CCL-185 Lung carcinoma human) (FIG. 2); the human breast tumour cell line, MCF7, (ATTC accession number ATCC HTB-22 breast adenocarcinoma, human) which expresses the estrogen receptor (FIG. 3); and in bovine aortic endothelial cells (BAEC) (FIG. 4).
The effects of test compounds were examined on proliferation of A549 cells in response to 5% fetal calf serum (FCS). Analogues were pre-incubated with A549 cells for 30 min before the addition of FCS. The incubation continued for 48 h before cell enumeration. Data are expressed as a percentage of the cell number in vehicle treated wells and are presented as the mean and standard error of the mean. Similarly the effects of 2MEO and 4NO on proliferation of MCF7 in response to 5% FCS or epidermal growth factor (EGF, 300 pM) were examined, as were the effects of 2MEO and 4NO on proliferation of BAEC in response to 5% FCS. The incubation parameters were the same as described above and results are presented as the mean and standard error of the mean.
This assay was also used to evaluate the ability of other compounds to inhibit the proliferation of non-smooth muscle cells MCF7 and A549 (described above) in response to 5% FCS. The results of this assay are presented in Table 4 (columns G and H respectively). The potency of the compounds was considerably less in inhibiting proliferation of these cell lines than it was for HASM. These observations support the contention that there are cell type-specific targets for the actions of these compounds. Such assays may also be adopted to examine the effect of other disclosed compounds on these cells or on other non-smooth muscle cells of interest.

SMILES | IC50 [1] | HASM- Thr pIC25 [1] | HASM- Thr pIC75 [1] | IC50 [2] | IC50 [3]
COc1cc2c(cc1O)/C(=N/OCc1ccncc1)C[C@@H]1[C@@H]2CC[C@]2(C)[C@@H](O)CC[C@@H]12 [CP-DM-4-16, 2-methoxy-6-(4-pyridylmethyloxy)iminoestradiol] | 1.45 µM | 6.57 | 5.19 | – | –
COc1cc2c(cc1O)/C(=N/OCc1cccc(C(F)(F)F)c1)C[C@@H]1[C@@H]2CC[C@]2(C)/C(=N/O)CC[C@@H]12 [CP-DM-3-118, 2-methoxy-6-(3-trifluoromethylbenzyloxy)iminoestrone-17-oxime] | 2.95 µM | – | – | 20.9 µM | –
C#C[C@]1(O)CC[C@H]2[C@@H]3C/C(=N\OCc4ccc([N+](=O)[O-])cc4)c4cc(O)ccc4[C@H]3CC[C@@]21C [CP-DM-4-89, 6-(4-nitrobenzyloxy)imino-17-ethinyl-estradiol] | – | – | – | 5.62 µM | –
COc1cc2c(cc1O)/C(=N/OCc1cccc(OC(F)(F)F)c1)C[C@@H]1[C@@H]2CC[C@]2(C)[C@@H](O)CC[C@@H]12 [CP-DM-4-63, 2-methoxy-6-(3-trifluoromethoxybenzyloxy)iminoestradiol] | 0.347 µM | 7.70 | 5.62 | 0.135 µM | –
COc1cccc(CO/N=C2\C[C@@H]3[C@H](CC[C@]4(C)/C(=N/O)CC[C@@H]34)c3cc(OC)c(O)cc32)c1 [CP-DM-4-66, 2-methoxy-6-(3-methoxybenzyloxy)iminoestrone-17-oxime] | 10 µM | – | – | – | –
COc1cccc(CO/N=C2\C[C@@H]3[C@H](CC[C@]4(C)[C@@H](O)CC[C@@H]34)c3cc(OC)c(O)cc32)c1 [CP-DM-4-62, 2-methoxy-6-(3-methoxybenzyloxy)iminoestradiol] | 2.19 µM | 5.69 | 5.63 | 1 µM | –
COc1cc2c(cc1O)/C(=N/OCc1ccccc1[N+](=O)[O-])C[C@@H]1[C@@H]2CC[C@]2(C)[C@@H](O)CC[C@@H]12 [CP-DM-3-124, 2-methoxy-6-(2-nitrobenzyloxy)iminoestradiol] | 0.0447 µM | 9.35 | 6.36 | 0.891 µM | –
COc1cc2c(cc1O)/C(=N/OCc1ccccc1[N+](=O)[O-])C[C@@H]1[C@@H]2CC[C@]2(C)/C(=N/O)CC[C@@H]12 [CP-DM-3-117, 2-methoxy-6-(2-nitrobenzyloxy)iminoestrone-17-oxime] | 6.46 µM | – | – | – | 5.13 µM
CO/N=C1\CC[C@H]2[C@@H]3C/C(=N\OCc4ccc([N+](=O)[O-])cc4)c4cc(O)c(OC)cc4[C@H]3CC[C@]12C [CP-DM-4-75, 6-(4-nitrobenzyloxy)imino-2-methoxyestrone-17-methyloxime] | 2.57 µM | – | – | – | –
COc1cc2c(cc1O)/C(=N/OCc1cccc(C#N)c1)C[C@@H]1[C@@H]2CC[C@]2(C)[C@@H](O)CC[C@@H]12 [CP-DM-4-52, 2-methoxy-6-(3-cyanobenzyloxy)iminoestradiol] | 0.955 µM | – | – | 0.398 µM | –
COc1cc2c(cc1O)/C(=N/OCc1ccc(OC(F)(F)F)cc1)C[C@@H]1[C@@H]2CC[C@]2(C)[C@@H](O)CC[C@@H]12 [CP-DM-4-64, 2-methoxy-6-(4-trifluoromethoxybenzyloxy)iminoestradiol] | 2.45 µM | 6.56 | 4.81 | 1.58 µM | –
C[C@]12CC[C@@H]3c4ccc(O)cc4/C(=N/OCc4cc(F)cc(F)c4)C[C@H]3[C@@H]1C[C@@H](O)[C@@H]2O [CP-DM-4-88, 6-(3,5-difluorobenzyloxy)iminoestriol] | 15.8 µM | – | – | – | –
COc1cc2c(cc1O)/C(=N/OCc1ccc(C#N)cc1)C[C@@H]1[C@@H]2CC[C@]2(C)[C@@H](O)CC[C@@H]12 [CP-DM-4-37, 6-(4-cyanobenzyloxy)imino-2-methoxyestradiol] | 12.9 µM | – | – | 6.46 µM | –
COc1cc2c(cc1O)/C(=N/OCc1cccc(C#N)c1)C[C@@H]1[C@@H]2CC[C@]2(C)/C(=N/O)CC[C@@H]12 [CP-DM-4-51, 2-methoxy-6-(3-cyanobenzyloxy)iminoestrone-17-oxime] | 4.37 µM | 5.46 | 5.26 | 34.7 µM | –
COc1cc2c(cc1O)/C(=N/OCc1cccc(OC(F)(F)F)c1)C[C@@H]1[C@@H]2CC[C@]2(C)/C(=N/O)CC[C@@H]12 [CP-DM-4-67, 2-methoxy-6-(3-trifluoromethoxybenzyloxy)iminoestrone-17-oxime] | 10 µM | – | – | – | –
COc1cc2c(cc1O)/C(=N/OCc1ccc(C)cc1)C[C@@H]1[C@@H]2CC[C@]2(C)/C(=N/O)CC[C@@H]12 [CP-DM-4-76, 2-methoxy-6-(4-methylbenzyloxy)iminoestrone-17-oxime] | 4.27 µM | – | – | – | –
